Experimental data from ChEMBL document CHEMBL1687944, “Purification and inhibition studies with anions and sulfonamides of an α-carbonic anhydrase from the Antarctic seal Leptonychotes weddellii” (Bioorg Med Chem, 2011).

What follows are compounds tested against Carbonic anhydrase 1 (Homo sapiens, UniProt P00915).
Chain of Carbonic anhydrase 1 (P00915 whole entry): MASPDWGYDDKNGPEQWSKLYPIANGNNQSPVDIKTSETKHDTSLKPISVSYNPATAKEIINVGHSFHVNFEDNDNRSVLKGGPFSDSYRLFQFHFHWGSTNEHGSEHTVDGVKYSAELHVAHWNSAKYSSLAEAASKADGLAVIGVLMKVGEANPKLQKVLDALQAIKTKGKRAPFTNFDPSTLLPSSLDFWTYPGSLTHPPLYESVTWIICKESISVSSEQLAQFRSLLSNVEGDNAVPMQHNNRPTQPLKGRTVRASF

Question: `O=S([O-])O.[Na+]` [SODIUM BISULFITE] was tested. Which Ki did it give?
Answer: The Ki was 18 mM.

Question: How did the Ki turn out when `O=[N+]([O-])[O-].[Na+]` [SODIUM NITRATE] was run?
Answer: Its Ki is 7 mM.

Question: Which Ki does the source give for `[O-][Cl+3]([O-])([O-])O` [SODIUM PERCHLORATE] here?
Answer: Its Ki is greater than 200 mM.
